This passage reports EC50 and Activity results from ChEMBL document CHEMBL1144508, “Inhibitory activity of stilbenes on Alzheimer's beta-amyloid fibrils in vitro” (Bioorg Med Chem, 2007).

The source made the active and inactive calls. No cut-off for these calls is given here.

Experiment [1] is described as follows: (§1) Antiamyloidogenic activity assessed as inhibition of beta amyloid (25-35) fibril formation after 6 hrs. The arrangement: species or system Homo sapiens.
For experiment [2], the species on record is Homo sapiens. The description is as §1.

For `Oc1ccc(/C=C/c2cc(O)cc(O)c2)cc1` [RESVERATROL], in experiment [1], the EC50 worked out at 5.6 µM.

For the compound `COc1cc(/C=C/C(=O)CC(=O)/C=C/c2ccc(O)c(OC)c2)ccc1O` [CURCUMIN], in experiment [1], the half-maximal effective concentration (EC50) was determined as 10 µM.

With `OC[C@H]1O[C@@H](Oc2cc(O)cc(/C=C/c3ccc(O)cc3)c2)[C@H](O)[C@@H](O)[C@@H]1O` [PICEID], in experiment [1], the EC50 stood at 4.7 µM.

Regarding `O=c1oc2c(O)c(O)cc3c(=O)oc4c(O)c(O)cc1c4c23`, in experiment [2], the result was inactive.
